Experiment [1] concerns endogenous NAMPT in U2OS cells. The experiment can be described thus: Cellular NAD+ modulation assay (NAD/NADH-Glo, U2OS cells). It is filed as cell-based. To be noted: Homo sapiens; for maximal fold induction: read-out: Cellular Emax. Put shortly: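 Endogenous NAMPT stimulation in U2OS cells treated with compound dilution series for 24 h at 37 °C. Cells lysed with DTAB base, acid-treated 15 min at 60 °C, neutralized, NAD+ read by NAD/NADH-Glo luminescence after 40 min at room temperature. EC50 and Emax (fold over DMSO) derived.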

Experiment [2] deals with T1, human enzyme NAMPT (full length) (Homo sapiens, UniProt P43490).
T1 construct: human enzyme NAMPT (full length)
T1 sequence (P43490 whole entry): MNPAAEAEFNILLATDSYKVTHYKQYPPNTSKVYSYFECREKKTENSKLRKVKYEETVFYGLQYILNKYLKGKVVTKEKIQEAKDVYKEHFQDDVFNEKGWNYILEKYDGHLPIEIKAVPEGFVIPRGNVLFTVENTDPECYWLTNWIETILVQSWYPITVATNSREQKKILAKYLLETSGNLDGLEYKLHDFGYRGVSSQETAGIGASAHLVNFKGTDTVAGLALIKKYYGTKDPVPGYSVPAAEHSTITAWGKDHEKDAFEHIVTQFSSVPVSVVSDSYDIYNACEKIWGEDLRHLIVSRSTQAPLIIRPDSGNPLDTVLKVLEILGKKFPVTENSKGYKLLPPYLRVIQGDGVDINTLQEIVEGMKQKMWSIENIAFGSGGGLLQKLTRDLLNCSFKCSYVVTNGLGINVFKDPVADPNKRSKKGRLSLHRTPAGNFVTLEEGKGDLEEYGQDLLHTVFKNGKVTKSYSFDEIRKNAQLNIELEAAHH
In words: NMN fluorescence biochemical assay (stimulation of NMN synthesis by NAMPT). To be noted: for pEC50: concentration giving half-maximal activation, read-out: Enzymatic EC50; for Enzymatic Emax: fold change of maximal activation compared to DMSO. In outline: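 Full-length human NAMPT (100 nM) was preincubated 15 min at 37 °C with compound in 50 mM Tris-HCl pH 7.5, 10 mM MgCl2, 2 mM DTT, then reacted 1 h at 37 °C with 50 μM NAM, 100 μM PRPP, 4 mM ATP (stated solution concentrations). NMN was derivatised with acetophenone/KOH then formic acid and read at Ex/Em 382/445 nm; EC50 and Emax (fold over DMSO) reported.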

The mark [3] stands for this setting: 24 hours incubation, cellular NAD+.
Setting [4] is: NMN fluorescence assay, purified human NAMPT 100 nM.
[5] abbreviates: 24 hours incubation with compound.
Setting [6] is: NMN synthesis by purified human NAMPT (100 nM).

pEC50: −log10 of the molar value. Where two headings read alike, the source gives them in different places. A value given as a limit tells only on which side of the number the result lay.

Broadly, the pEC50 is −log10 of the EC50, conventionally taken in molar units. `Cc1ccnc(C(N)=O)c1CC1c2ccccc2C(=O)N1Cc1ccc2[nH]nnc2c1` (stereo not shown) [Compound 444, 3-((2-((1H-benzo[d][1,2,3]triazol-5-yl)methyl)-3-oxoisoindolin-1-yl)methyl)-4-methylpicolinamide]: the pEC50 in experiment [1] (setting [3]) and in experiment [2] (setting [4]) was 5.30 to 6.30 each time. Moreover, the maximal fold induction in experiment [1] (setting [3]) was above 1.5. In addition, in experiment [2], the “Enzymatic Emax” value is given as “A (A>3)”.
On to `Cn1ncc(Cl)c1CC1c2ccccc2C(=O)N1Cc1ccc2nonc2c1` (stereo not shown) [Compound 600, 2-(benzo[c][1,2,5]oxadiazol-5-ylmethyl)-3-((4-chloro-1-methyl-IH-pyrazol-5-yl)methyl)isoindolin-1-one], for which, in experiment [1] (setting [3]), the pEC50 was 4.30 to 5.30 and the maximal fold induction is at most 1.2. Further, the pEC50 in experiment [2] (setting [4]) is at most 5.30. The “Enzymatic Emax” value in experiment [2] is listed as “C (2≥C)”.
The corresponding values for `O=C1NCC2(CC(CN3C(=O)c4ccccc4C3Cc3c(Cl)nc4ccccn34)C2)O1` (stereo not shown) [Compound 488, 2-((1-((2-chloroimidazo[1,2-a]pyridin-3-yl)methyl)-3-oxoisoindolin-2-yl)methyl)-5-oxa-7-azaspiro[3.4]octan-6-one] are above 6.30, above 1.5, 5.30 to 6.30 and “B (3≥B>2)”.
As for `O=C1c2ccccc2C(Cc2ncccc2Br)N1Cc1cc2oc(=O)[nH]c2cc1F` (stereo not shown) [Compound 223, 6-((1-((3-bromopyridin-2-yl)methyl)-3-oxoisoindolin-2-yl)methyl)-5-fluorobenzo[d]oxazol-2(3H)-one], the results for the pEC50 in experiment [1] (setting [5]) and in experiment [2] (setting [6]) were 5.30 to 6.30 and above 6.30, respectively. In experiment [1] (setting [5]), the maximal fold induction was above 1.5. Also, the “Enzymatic Emax” value in experiment [2] is listed as “A (A>3)”.
The corresponding values for `CC1c2cc(C3COC3)ccc2C(=O)N1Cc1ccc2[nH]c(=O)oc2c1` (single isomer, unassigned) [Compound 198] are 5.30 to 6.30, 5.30 to 6.30, above 1.5 and “B (3≥B>2)”.
As to `Cc1cccc2c1C(=O)N(CC1CC3(CNC(=O)O3)C1)C2Cc1c(Cl)cnn1C` (stereo not shown) [Compound 460, 2-((1-((4-chloro-1-methyl-1H-pyrazol-5-yl)methyl)-4-methyl-3-oxoisoindolin-2-yl)methyl)-5-oxa-7-azaspiro[3.4]octan-6-one], in experiment [1] (setting [3]), the negative-log EC50 (pEC50) is above 6.30 and the maximal fold induction was above 1.5. Moreover, the pEC50 in experiment [2] (setting [4]) was above 6.30. Moreover, in experiment [2], the “Enzymatic Emax” value is given as “B (3≥B>2)”.
Take `N#Cc1cncc(C#N)c1CC1c2ccccc2C(=O)N1CC1CC2(CNC(=O)O2)C1` (stereo not shown) [Compound 459, 4-((3-oxo-2-((6-oxo-5-oxa-7-azaspiro[3.4]octan-2-yl)methyl)isoindolin-1-yl)methyl)pyridine-3,5-dicarbonitrile]: in experiment [1] (setting [3]), the pEC50 was above 6.30 and the maximal fold induction is above 1.5. Besides, the pEC50 in experiment [2] (setting [4]) is 5.30 to 6.30. Besides, in experiment [2], the “Enzymatic Emax” value is reported as “A (A>3)”.
The like results for `Cn1c(=O)oc2cc(CN3C(=O)c4ccccc4C3Cc3c(Br)cccc3C#N)ccc21` (stereo not shown) [Compound 552, 3-bromo-2-((2-((3-methyl-2-oxo-2,3-dihydrobenzo[d]oxazol-6-yl)methyl)-3-oxoisoindolin-1-yl)methyl)benzonitrile] were, in that order, above 6.30, above 1.5, above 6.30 and “A (A>3)”.
Turning to `Cn1ncc(Cl)c1CC1c2cc(C3CC3)ccc2C(=O)N1Cc1ccc2[nH]nnc2c1` (stereo not shown) [Compound 350, 2-((1H-benzo[d][1,2,3]triazol-5-yl)methyl)-3-((4-chloro-1-methyl-1H-pyrazol-5-yl)methyl)-5-cyclopropylisoindolin-1-one], in experiment [1] (setting [3]), the pEC50 was above 6.30 and the maximal fold induction was above 1.5. The negative-log EC50 (pEC50) in experiment [2] (setting [4]) was above 6.30. Further, in experiment [2], the “Enzymatic Emax” value is given as “A (A>3)”.
As for `Cn1nc(C#N)c(Cl)c1CC1c2ccccc2C(=O)N1CC1CC2(CNC(=O)O2)C1` (stereo not shown) [Compound 495, 4-chloro-1-methyl-5-((3-oxo-2-((6-oxo-5-oxa-7-azaspiro[3.4]octan-2-yl)methyl)isoindolin-1-yl)methyl)-1H-pyrazole-3-carbonitrile], the pEC50 in experiment [1] (setting [3]) is above 6.30; in experiment [2] (setting [4]), 5.30 to 6.30. The maximal fold induction in experiment [1] (setting [3]) is above 1.5. In addition, the “Enzymatic Emax” value in experiment [2] is given as “B (3≥B>2)”.
For the compound `O=C1c2cccnc2CN1Cc1ccc(O)cc1` [Compound 39, 6-(4-hydroxybenzyl)-6,7-dihydro-5H-pyrrolo[3,4-b]pyridin-5-one], in experiment [1] (setting [5]), the pEC50 is 4.30 to 5.30 and the maximal fold induction lay in the range of 1.2 to 1.5. Further, the negative logarithm of the EC50 (pEC50) in experiment [2] (setting [6]) is at most 5.30. In addition, the “Enzymatic Emax” value in experiment [2] is listed as “B (3≥B>2)”.
The like results for `O=C1c2ccccc2C(C2CC2)N1Cc1ccc2[nH]c(=O)oc2c1` (stereo not shown) [Compound 72, 6-((1-cyclopropyl-3-oxoisoindolin-2-yl)methyl)benzo[d]oxazol-2(3H)-one] were, in that order, 5.30 to 6.30, above 1.5, at most 5.30 and “A (A>3)”.
As for `Cn1ncc(Cl)c1CC1c2ccccc2C(C)(C)N1CC1CC2(CNC(=O)O2)C1` (stereo not shown) [Compound 565, 2-((3-((4-chloro-1-methyl-1H-pyrazol-5-yl)methyl)-1,1-dimethylisoindolin-2-yl)methyl)-5-oxa-7-azaspiro[3.4]octan-6-one], the pEC50 in experiment [1] (setting [3]) and in experiment [2] (setting [4]) was above 6.30 in each case. The maximal fold induction in experiment [1] (setting [3]) is above 1.5. The “Enzymatic Emax” value in experiment [2] is reported as “A (A>3)”.
In the case of `COc1ncc(CN2C(=O)c3ccccc3C2Cc2c(Cl)cnn2C)o1` (stereo not shown) [Compound 603, 3-((4-chloro-1-methyl-1H-pyrazol-5-yl)methyl)-2-((2-methoxyoxazol-5-yl)methyl)isoindolin-1-one], in experiment [1] (setting [3]), the pEC50 was 5.30 to 6.30 and the maximal fold induction is 1.2 to 1.5. Further, the pEC50 in experiment [2] (setting [4]) was at most 5.30. Further, the “Enzymatic Emax” value in experiment [2] was “C (2≥C)”.
For `N#Cc1cccc(Cl)c1CC1c2ccccc2C(=O)N1Cc1ccc2[nH]c(=O)oc2c1` (stereo not shown) [Compound 190, 3-chloro-2-((3-oxo-2-((2-oxo-2,3-dihydrobenzo[d]oxazol-6-yl)methyl)isoindolin-1-yl)methyl)benzonitrile], in experiment [1] (setting [5]), the pEC50 is above 6.30 and the maximal fold induction is above 1.5. Also, the pEC50 in experiment [2] (setting [6]) was above 6.30. Further, the “Enzymatic Emax” value in experiment [2] is on record as “B (3≥B>2)”.
As for `O=C1c2ccccc2C(Cc2ncccc2Br)N1C/C(F)=C/c1c[nH]nn1` (stereo not shown) [Compound 314, (Z)-3-((3-bromopyridin-2-yl)methyl)-2-(2-fluoro-3-(1H-1,2,3-triazol-4-yl)allyl)isoindolin-1-one], the negative-log EC50 (pEC50) in experiment [1] (setting [5]) and in experiment [2] (setting [6]) was above 6.30 throughout. For the same compound, in experiment [1] (setting [5]), the maximal fold induction is above 1.5. In experiment [2], the “Enzymatic Emax” value was “B (3≥B>2)”.
As to `Cn1ncc(Cl)c1CC1c2ccccc2C(=O)N1CC1CC(C(N)=O)C1` (stereo not shown) [Compound 562, 3-((1-((4-chloro-1-methyl-1H-pyrazol-5-yl)methyl)-3-oxoisoindolin-2-yl)methyl)cyclobutane-1-carboxamide], the negative-log EC50 (pEC50) is above 6.30 in experiment [1] (setting [3]) and 5.30 to 6.30 in experiment [2] (setting [4]). Further, in experiment [1] (setting [3]), the maximal fold induction lay in the range of 1.2 to 1.5. Besides, the “Enzymatic Emax” value in experiment [2] is “B (3≥B>2)”.
`Cc1cccc2c1CN(Cc1ccc(O)cc1)C2=O` [Compound 34, 2-(4-hydroxybenzyl)-4-methylisoindolin-1-one]: in experiment [1] (setting [5]), the pEC50 is 5.30 to 6.30 and the maximal fold induction is 1.2 to 1.5. For the same compound, the pEC50 in experiment [2] (setting [6]) was 5.30 to 6.30. For the same compound, the “Enzymatic Emax” value in experiment [2] is reported as “B (3≥B>2)”.
`Cn1c(CC2c3ccccc3C(=O)N2Cc2ccc3[nH]nnc3c2)c(Cl)ccc1=O` (stereo not shown) [Compound 381, 2-((1H-benzo[d][1,2,3]triazol-5-yl)methyl)-3-((3-chloro-1-methyl-6-oxo-1,6-dihydropyridin-2-yl)methyl)isoindolin-1-one]: in experiment [1] (setting [3]), the pEC50 is above 6.30 and the maximal fold induction is above 1.5. Further, the pEC50 in experiment [2] (setting [4]) was above 6.30. For the same compound, the “Enzymatic Emax” value in experiment [2] is reported as “B (3≥B>2)”.
Turning to `COc1ccc(CN2C(=O)c3ccccc3C2Cc2c(Cl)cnn2C)cc1F` (stereo not shown) [Compound 517, 3-((4-chloro-1-methyl-1H-pyrazol-5-yl)methyl)-2-(3-fluoro-4-methoxybenzyl)isoindolin-1-one], in experiment [1] (setting [3]), the pEC50 is above 6.30 and the maximal fold induction is 1.2 to 1.5. The pEC50 in experiment [2] (setting [4]) is 5.30 to 6.30. For the same compound, the “Enzymatic Emax” value in experiment [2] is reported as “B (3≥B>2)”.
Turning to `Cc1cccc(CC2c3ccccc3C(=O)N2Cc2ccc3[nH]c(=O)oc3c2)n1` (stereo not shown) [Compound 158, 6-((1-((6-methylpyridin-2-yl)methyl)-3-oxoisoindolin-2-yl)methyl)benzo[d]oxazol-2(3H)-one], in experiment [1] (setting [5]), the pEC50 is 5.30 to 6.30 and the maximal fold induction was above 1.5. The pEC50 in experiment [2] (setting [6]) is at most 5.30. In addition, the “Enzymatic Emax” value in experiment [2] is “A (A>3)”.
The like results for `O=C1c2ccccc2C(Cc2nn(C3COC3)cc2Cl)N1Cc1ccc2[nH]nnc2c1` (stereo not shown) [Compound 318, 2-((1H-benzo[d][1,2,3]triazol-5-yl)methyl)-3-((4-chloro-1-(oxetan-3-yl)-1H-pyrazol-3-yl)methyl)isoindolin-1-one] were, in that order, above 6.30, above 1.5, above 6.30 and “A (A>3)”.

The values are drawn from US20260078130A1, “NAMPT MODULATORS, PREPARATIONS, AND USES THEREOF” (SIRONAX LTD., priority 2022, published 2026).
